Source: PubChem BioAssay AID2060626 (Molecular Pharmacology Branch, DTP, NCI, 2025)

System: 168753-222-R-J1-PDC complex spheroid viability
Test: Anticancer human tumor 168753-222-R-J1-PDC patient-derived bladder carcinoma cell line growth inhibition [CLK]
Settings: for IC50: curve of first compound; for viability, T/C: stronger effect = lower value
Outline: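 Multi-cell-type spheroids combined patient-derived tumor cells with HUVEC endothelial cells and human mesenchymal stem cells. Paired agents were dosed in half-log steps down from about clinical Cmax, or from 10 microM where Cmax was unknown.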
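Further: viability measured after seven days of drug exposure.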
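Wherever viability, T/C is given: luminescence signal used as surrogate for viable cell amount; 100% = DMSO vehicle control wells.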

COc1ccc([C@@H](O)c2cc(-c3ncnc4cc(N5CCOCC5)ccc34)c(F)cc2Cl)nn1 + CNC(=O)c1ccc(Nc2nc(OC3CCCC3)c3c(-c4ccc5nc(C)oc5c4)c[nH]c3n2)c(OC)c1
IC50 (second compound 0.0316 µM): 1620 nM | IC50 (second compound 0.1 µM): 1690 nM | IC50 (second compound 0.316 µM): 565 nM | IC50 (second compound 1 µM): < 31.6 nM | IC50 (second compound 3.16 µM): < 31.6 nM | IC50 (second compound 10 µM): < 31.6 nM | viability, T/C (second compound 0.0316 µM, first compound 0.0316 µM): 107% | viability, T/C (second compound 0.0316 µM, first compound 0.1 µM): 94% | viability, T/C (second compound 0.0316 µM, first compound 0.316 µM): 88.3% | viability, T/C (second compound 0.0316 µM, first compound 1 µM): 67.8% | viability, T/C (second compound 0.0316 µM, first compound 3.16 µM): 27% | viability, T/C (second compound 0.0316 µM, first compound 10 µM): 15.9% | viability, T/C (second compound 0.1 µM, first compound 0.0316 µM): 91.1% | viability, T/C (second compound 0.1 µM, first compound 0.1 µM): 94.5% | viability, T/C (second compound 0.1 µM, first compound 0.316 µM): 82.7% | viability, T/C (second compound 0.1 µM, first compound 1 µM): 69.4% | viability, T/C (second compound 0.1 µM, first compound 3.16 µM): 27.9% | viability, T/C (second compound 0.1 µM, first compound 10 µM): 16.8% | viability, T/C (second compound 0.316 µM, first compound 0.0316 µM): 75.6% | viability, T/C (second compound 0.316 µM, first compound 0.1 µM): 78.9% | viability, T/C (second compound 0.316 µM, first compound 0.316 µM): 67.3% | viability, T/C (second compound 0.316 µM, first compound 1 µM): 32.5% | viability, T/C (second compound 0.316 µM, first compound 3.16 µM): 20.7% | viability, T/C (second compound 0.316 µM, first compound 10 µM): 13.9% | viability, T/C (second compound 1 µM, first compound 0.0316 µM): 41.9% | viability, T/C (second compound 1 µM, first compound 0.1 µM): 27.2% | viability, T/C (second compound 1 µM, first compound 0.316 µM): 26.3% | viability, T/C (second compound 1 µM, first compound 1 µM): 18.4% | viability, T/C (second compound 1 µM, first compound 3.16 µM): 16.5% | viability, T/C (second compound 1 µM, first compound 10 µM): 13.5% | viability, T/C (second compound 3.16 µM, first compound 0.0316 µM): 25.3% | viability, T/C (second compound 3.16 µM, first compound 0.1 µM): 23.7% | viability, T/C (second compound 3.16 µM, first compound 0.316 µM): 21.1% | viability, T/C (second compound 3.16 µM, first compound 1 µM): 16.6% | viability, T/C (second compound 3.16 µM, first compound 3.16 µM): 17.8% | viability, T/C (second compound 3.16 µM, first compound 10 µM): 15.8% | viability, T/C (second compound 10 µM, first compound 0.0316 µM): 18.5% | viability, T/C (second compound 10 µM, first compound 0.1 µM): 21.5% | viability, T/C (second compound 10 µM, first compound 0.316 µM): 20.8% | viability, T/C (second compound 10 µM, first compound 1 µM): 15.9% | viability, T/C (second compound 10 µM, first compound 3.16 µM): 15.4% | viability, T/C (second compound 10 µM, first compound 10 µM): 11.3%
